Data reported in US20250332112A1, “IONIZABLE CATIONIC LIPIDS FOR LIPID NANOPARTICLES” (GENEVANT SCIENCES GMBH, priority 2022, published 2025).

Experiments:
[1] = Parent ionizable lipid remaining in liver at 6 h after luciferase mRNA LNP (LC-MS); assay type: in vivo; conditions: 6 h after IV 0.5 mg/kg Luciferase mRNA LNP
Experimental: Liver tissues were treated with PBS and homogenized with a FastPrep machine, 3 cycles of 5 m/s×15 s. Homogenates from the PBS-treated control animals was pooled and used for standard curve preparation. Samples were extracted into a deep well plate with 250 μL of an internal suitability standard. Plates were centrifuged for 15 min at 4° C. and 2000 rpm. Analysis was performed using an Agilent 6520 QTOF coupled to an Agilent 1290 UHPLC, using reverse-phase LC separation. Quantitation of the ionizable lipid was by MS/MS against a calibration curve spiked into appropriately matched blank matrix. Calibration used a similar class of synthetic lipid as internal standard.
At 6 h post-dose, some treatment groups reported lower levels of novel ionizable lipid in mouse liver compared to the benchmark (Tables 16-18).

[2] = system: luciferase activity in the liver; test: Luciferase activity in liver after intravenous luciferase mRNA LNP; assay type: in vivo; conditions: 0.5 mg/kg IV, 6 h post-IV administration, BALB/c mice (n = 4)
Experimental: Frozen aliquots of liver were thawed and homogenized in 1 mL of 1×CCLR (Cell Culture Lysis Reagent) using a FastPrep® homogenizer. The homogenate was then centrifuged at 16,000 RPM for 10 minutes at 4° C. Twenty (20) μL of the supernatant was loaded into a 96-well white plate and luminescence measured following addition of luciferase reagent (Promega Luciferase Assay System). Luciferase activity was determined by comparing luminescence of the homogenized samples to luciferase protein standards. To account for any quenching of luminescence by components in the liver homogenate, luciferase was added to the liver homogenates of untreated animals and the resulting luminescence measured. The resulting quench factor was applied to all samples to obtain the corrected luciferase activity, and normalized per unit mass of tissue analyzed.

[3] = Particle characteristics of LNPs containing luciferase mRNA and novel ionizable lipids; assay type: physicochemical
Experimental: The lipid solution contains 4 components: a PEG-conjugated lipid, an ionizable lipid, cholesterol, and a phospholipid (e.g., DSPC). Lipid stocks were prepared using the lipid identities and molar ratios as described, to achieve a total concentration of ˜7 mg/mL in 100% ethanol. Firefly luciferase mRNA (TriLink Biotechnologies, L-7202) or ornithine transcarbamylase (OTC) mRNA (TriLink Biotechnologies, custom designed) was diluted in acetate, pH 5 buffer and nuclease free water to achieve a target concentration of 0.366 mg/mL mRNA in 100 mM acetate, pH 5. Equal volumes of the lipid and nucleic acid solutions were blended at a flow rate of 400 mL/min through a T-connector, and diluted with ˜4 volumes of PBS, pH 7.4. Formulations were placed in Slide-A-Lyzer dialysis units (MWCO 10,000) and dialyzed overnight against 10 mM Tris, 500 mM NaCl, pH 8 buffer. Following dialysis, the formulations were concentrated to ˜0.6 mg/mL using VivaSpin concentrator units (MWCO 100,000) and dialyzed overnight against 5 mM Tris, 10% sucrose, pH 8 buffer. Formulations were filtered through a 0.2 μm syringe filter (PES membrane). Nucleic acid concentration was determined by the RiboGreen assay. Particle size and polydispersity were determined using a Malvern Nano Series Zetasizer.
LNP formulations containing novel ionizable lipids all produced stable particles with high encapsulation efficiency (Tables 1-7).

[4] = Table 3, luciferase mRNA LNP 1.6:54.6:32.8:10.9
[5] = Table 1, luciferase mRNA LNP 1.6:54.6:32.8:10.9
[6] = Table 1, luciferase mRNA LNP 1.6:54.6:32.8:10.9 PEG2000-C-DMA:Ionizable lipid:Cholesterol:DSPC
[7] = Table 2, luciferase mRNA LNP 1.6:54.6:32.8:10.9
[8] = Table 18, female BALB/c mice (n = 4)

SMILES: CCCCCCCCCCC(CCCCCC(=O)OCC(CCCCCC)CCCCCCCC)N(CCCCCCCCCC)C(=O)CCCCN(C)C (centres unmarked) [Compound 3, 2-Hexyldecyl 7-(N-decyl-5-(dimethylamino)pentanamido)heptadecanoate]
- Parent ionizable lipid remaining in liver, Average ([1]; Table 16, female BALB/c mice (n = 4)): 7.72 nmol/g liver
- Luc Activity ([2]; Table 10): 5.94E+07 pg/g liver
- Final Product % EE [3, 4]: 99%
- Final Product PDI [3, 4]: 0.05
- Final Product Z-avg [3, 4]: 91 nm

SMILES: CCCCCCCCCCON(C(=O)CCCCN(C)C)C(CCCCCCCCCC)CCCCCCC(=O)OCC(CCCCCC)CCCCCCCC (centres unmarked) [Compound 45]
- Parent ionizable lipid remaining in liver, Average ([1]; Table 17, female mice (n = 4)): 36.39 nmol/g liver
- Luc Activity ([2]; Table 13): 8.00E+07 pg/g liver

SMILES: CCCCCCCCCCC(CCCCCCC(=O)OCC(CCCCCC)CCCCCCCC)N(OCCCCCCCCC)C(=O)CCCN(C)C (centres unmarked) [Compound 46]
- Parent ionizable lipid remaining in liver, Average ([1]; Table 17, female mice (n = 4)): 47.63 nmol/g liver
- Luc Activity ([2]; Table 13): 1.08E+08 pg/g liver

SMILES: CCCCCCCCCC(CC(=O)OCC(CCCCCC)CCCCCCCC)N(CCCN(C)C)S(=O)(=O)CCCCCCCC (centres unmarked) [Compound 48, 2-hexyldecyl 3-{N-[3-(dimethylamino)propyl]octane-1-sulfonamido}dodecanoate]
- Luc Activity ([2]; Table 8): 6.49E+06 pg/g liver
- Final Product % EE [3, 5]: 96%
- Final Product PDI [3, 5]: 0.04
- Final Product Z-avg [3, 6]: 71 nm

SMILES: CCCCCCCCCC(CC(=O)OCC(CCCCCC)CCCCCCCC)N(CCCN(C)C)S(=O)(=O)CCCC (centres unmarked) [Compound 49, 2-Hexyldecyl 3-(N-(3-(dimethylamino)propyl)butylsulfonamido)dodecanoate]
- Luc Activity ([2]; Table 8): 8.36E+06 pg/g liver
- Final Product % EE [3, 5]: 96%
- Final Product PDI [3, 5]: 0.08
- Final Product Z-avg [3, 6]: 61 nm

SMILES: CCCCCCCCCCOC(=O)CC(CCCCCCCCC)N(CCCN(C)C)S(=O)(=O)CC(CCCCCC)CCCCCCCC (centres unmarked) [Compound 50, Decyl 3-{N-[3-(dimethylamino)propyl]2-hexyldecanesulfonamido}dodecanoate]
- Luc Activity ([2]; Table 8): 4.82E+06 pg/g liver
- Final Product % EE [3, 5]: 93%
- Final Product PDI [3, 5]: 0.07
- Final Product Z-avg [3, 6]: 61 nm

SMILES: CCCCCCCCCCCS(=O)(=O)N(CCCN(C)C)C(CCCCCCCCC)CC(=O)OCC(CCCCCC)CCCCCCCC (centres unmarked) [Compound 51, 2-hexyldecyl 3-{N-[3-(dimethylamino)propyl]undecane-1-sulfonamido}dodecanoate]
- Luc Activity ([2]; Table 8): 2.50E+07 pg/g liver
- Final Product % EE [3, 5]: 94%
- Final Product PDI [3, 5]: 0.09
- Final Product Z-avg [3, 6]: 62 nm

SMILES: CCCCC/C=C\CCCOC(=O)CC(CCCCCCCCC)N(CCCN(C)C)S(=O)(=O)CCCCCCCCCCC (centres unmarked) [Compound 52, (Z)-Dec-4-en-1-yl 3-(N-(3-(dimethylamino)propyl)undecylsulfonamido)dodecanoate]
- Luc Activity ([2]; Table 8): 5.65E+06 pg/g liver
- Final Product % EE [3, 5]: 95%
- Final Product PDI [3, 5]: 0.05
- Final Product Z-avg [3, 6]: 72 nm

SMILES: CCCCCCCCCC(=O)N(CCCN(C)C)C(CCCCCCCCC)CC(=O)NN(CCCCCCCC)CCCCCCCC (centres unmarked) [Compound 53, N-[3-(dimethylamino)propyl]-N-[1-(N′,N′-dioctylhydrazinecarbonyl)undecan-2-yl]decanamide]
- Luc Activity ([2]; Table 9): 8.02E+06 pg/g liver
- Final Product % EE [3, 7]: 97%
- Final Product PDI [3, 7]: (0.07)
- Final Product Z-avg [3, 7]: 106 nm

SMILES: CCCCCCCCCC(=O)N(CCCN(C)C)C(CCCCCCCCC)CC(=O)NN=C(CCCCCCCC)CCCCCCCC (centres unmarked) [Compound 55, N-[3-(dimethylamino)propyl]-N-{1-[N′-(heptadecan-9-ylidene)hydrazinecarbonyl]undecan-2-yl}decanamide]
- Luc Activity ([2]; Table 9): 1.22E+06 pg/g liver
- Final Product % EE [3, 7]: 98%
- Final Product PDI [3, 7]: (0.17)
- Final Product Z-avg [3, 7]: 94 nm

SMILES: CCCCC/C=C\CCCC(CCC/C=C\CCCCC)=NNC(=O)CC(CCCCCCCCC)N(CCCN(C)C)C(=O)CCCCCCCCC (centres unmarked) [Compound 56, N-(3-(Dimethylamino)propyl)-N-(1-(2-((6Z,15Z)-henicosa-6,15-dien-11-ylidene)hydrazineyl)-1-oxododecan-3-yl)decanamide]
- Luc Activity ([2]; Table 9): 9.00E+06 pg/g liver
- Final Product % EE [3, 7]: 96%
- Final Product PDI [3, 7]: (0.10)
- Final Product Z-avg [3, 7]: 97 nm

SMILES: CCCCCCCCCC(=O)N(CCCN(C)C)C(CCCCCCCCC)CC(=O)NNC(CCCCCCCC)CCCCCCCC (centres unmarked) [Compound 58, N-[3-(dimethylamino)propyl]-N-{1-[N′-(heptadecan-9-yl)hydrazinecarbonyl]undecan-2-yl}decanamide]
- Luc Activity ([2]; Table 9): 3.11E+05 pg/g liver
- Final Product % EE [3, 7]: 99%
- Final Product PDI [3, 7]: (0.13)
- Final Product Z-avg [3, 7]: 81 nm

SMILES: CCCCCCCCCCC(CCCCCCC(=O)OCCC(CCCCC)CCCCC)N(CCCCCCCC(=O)OCc1cc(CCCCCC)cc(CCCCCC)c1)C(=O)CCCN(C)C (centres unmarked) [Compound 66]
- Parent ionizable lipid remaining in liver, Average [1, 8]: 34.35 nmol/g liver
- Luc Activity ([2]; Table 14): 2.00E+07 pg/g liver

SMILES: CCCCCCCCCCC(CCCCCCC(=O)OCCC(CCCCCC)CCCCCC)N(CCCCCCCC(=O)OCCC(CCCCCC)CCCCCC)C(=O)CCCN(C)C (centres unmarked) [Compound 69]
- Parent ionizable lipid remaining in liver, Average ([1]; Table 17, female mice (n = 4)): 50.57 nmol/g liver
- Luc Activity ([2]; Table 13): 4.10E+07 pg/g liver

SMILES: CCCCCCCCCCC(CCCCCCC(=O)OCCC(CCCCCCC)CCCCCCC)N(CCCCCCCC(=O)OCCC(CCCCCCC)CCCCCCC)C(=O)CCCN(C)C (centres unmarked) [Compound 71]
- Parent ionizable lipid remaining in liver, Average ([1]; Table 17, female mice (n = 4)): 27.52 nmol/g liver
- Luc Activity ([2]; Table 13): 4.58E+07 pg/g liver

SMILES: CCCCCCCCCCC(CCCCCCC(=O)OCCC(CCCCC)CCCCC)N(CCCCCCCCC(=O)OCCC(CCCCC)CCCCC)C(=O)CCCCN(C)C (centres unmarked) [Compound 75]
- Parent ionizable lipid remaining in liver, Average [1, 8]: 20.44 nmol/g liver
- Luc Activity ([2]; Table 14): 2.58E+07 pg/g liver

SMILES: CCCCCCCCCCC(CCCCCCC(=O)OCC(CCCCCC)CCCCCCCC)N(CCCN(C)C)C(=O)CCCCCCC(=O)OCCC(CCCCCC)CCCCCC (centres unmarked) [Compound 84]
- Parent ionizable lipid remaining in liver, Average ([1]; Table 17, female mice (n = 4)): 38.96 nmol/g liver
- Luc Activity ([2]; Table 13): 6.26E+07 pg/g liver

SMILES: CCCCCCCCCCC(CCCCCCC(=O)OCC(CCCCCC)CCCCCCCC)N(CCCN(C)C)C(=O)CCCCCCC(=O)OCCC(CCCCCCC)CCCCCCC (centres unmarked) [Compound 85]
- Parent ionizable lipid remaining in liver, Average ([1]; Table 17, female mice (n = 4)): 37.66 nmol/g liver
- Luc Activity ([2]; Table 13): 4.79E+07 pg/g liver

SMILES: CCCCCCCCCCC(CCCCCCC(=O)OCCC(CCCCC)CCCCC)N(CCCCCC(F)C(=O)OCCC(CCCCC)CCCCC)C(=O)CCCN(C)C (centres unmarked) [Compound 86]
- Parent ionizable lipid remaining in liver, Average [1, 8]: 12.79 nmol/g liver
- Luc Activity ([2]; Table 14): 1.21E+07 pg/g liver
